Laboratory results published in patent publication US20080044428A1, “Glycosylphosphatidylinositol Glycan Signalling Via Integrins Functioning as Glycan Specific Receptors” (THE WALTER AND ELIZA HALL INSTITUTE OF MEDICAL RES, priority 2004, published 2008).

How the values were obtained:
[1] = test system: sham-transfected CHO cells (CHO-Neo); test: FACS binding of fluoresceinated conjugates to sham-transfected CHO cells; settings: FACS analysis
From the text: (§1) Sham conjugation procedures were also followed substituting cysteine for glycan.

[2] = test system: αMβ2-integrin, also known as CR3 or Mac-1; test: FACS binding of fluoresceinated conjugates to CHO cells transfected with αMβ2-integrin; settings: FACS analysis, CHO-Mac1 cells
αMβ2-integrin, also known as CR3 or Mac-1, sequence (P05107 23-769, other chains not shown): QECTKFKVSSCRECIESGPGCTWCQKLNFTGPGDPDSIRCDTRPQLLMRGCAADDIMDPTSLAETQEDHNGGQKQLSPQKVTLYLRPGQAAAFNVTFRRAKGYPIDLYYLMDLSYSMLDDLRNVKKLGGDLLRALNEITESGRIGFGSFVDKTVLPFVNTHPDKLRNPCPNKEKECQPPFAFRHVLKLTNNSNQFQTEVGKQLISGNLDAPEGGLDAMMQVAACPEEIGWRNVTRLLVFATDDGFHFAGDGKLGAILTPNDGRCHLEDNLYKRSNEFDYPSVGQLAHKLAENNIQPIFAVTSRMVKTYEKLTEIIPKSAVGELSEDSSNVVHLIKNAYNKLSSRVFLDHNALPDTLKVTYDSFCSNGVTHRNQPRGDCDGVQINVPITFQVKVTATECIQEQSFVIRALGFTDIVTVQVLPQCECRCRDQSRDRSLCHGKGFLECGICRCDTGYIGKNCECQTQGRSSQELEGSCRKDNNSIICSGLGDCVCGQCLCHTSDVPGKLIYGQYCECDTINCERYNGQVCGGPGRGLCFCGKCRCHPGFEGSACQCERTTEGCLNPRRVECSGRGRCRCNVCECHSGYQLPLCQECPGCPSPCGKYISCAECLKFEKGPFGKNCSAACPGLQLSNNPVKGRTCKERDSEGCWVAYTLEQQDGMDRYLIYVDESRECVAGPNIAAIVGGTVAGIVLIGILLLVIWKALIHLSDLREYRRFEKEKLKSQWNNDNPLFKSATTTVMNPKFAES
From the text: as §1

fluoresceinated BSA-cysteine: sham conjugate of BSA carrier protein substituting cysteine for glycan, fluoresceinated
binding to sham-transfected CHO cells (CHO-Neo) [1]: 0.4% | binding to CHO cells transfected with αMβ2-integrin [2]: 0.69%
